target: T1, PDE4D2 (Homo sapiens, UniProt Q08499); test: Effect of compounds on PDE4D2 activity (fluorescence polarization kit); type: biochemical; settings: class symbols
T1 construct: purchased BPS Bioscience 60345
Method: The effect of compounds on PDE4D2 activity was detected by a fluorescence polarization kit (BPS Bioscience, Catalog #60345). During the reaction, 12.5 μL of 0.272 ng/well of an enzyme (final concentration: 0.068 ng/well) and 12.5 μL of the compound diluted in a gradient manner (DMSO concentration: 4%) were first pre-incubated at room temperature for 15 minutes, the same volume of the enzyme at the same concentration and 12.5 μL of PDE buffer containing 4% DMSO were added to the positive control well, and 25 μL of PDE buffer containing 2% DMSO was added to the negative control well. After completion, 25 μL of […] FAM-Cyclic-3′,5′-AMP (final concentration: […]) was added to each well, fully mixed, and then incubated at room temperature with slow shaking for 30 minutes. The Binding Agent was diluted with the Binding Agent Diluent (cAMP) at a ratio of 1:100 for later use, 100 μl/well of the Binding Agent dilution was taken and added to all wells of the test plate and incubated at room temperature with slow shaking for 1 hour.
After the incubation was complete, BMG LRBTECH microplate reader was used for FP detection, with Excitation at 485 nm and Emission at 520 nm. FP was usually represented by mP value.
[formula] • I∥ (S520): fluorescence intensity in parallel direction • I⊥ (P520): fluorescence intensity in perpendicular direction • G: G factor=1
(§1) [formula] • mP(sample): mP of the test compound in a reaction well • mP(negative control): mP in the negative control well • mP(positive control): mP in the positive control well
(§2) According to the calculated inhibition rate at each concentration, the IC50 value of each compound was calculated by GraphPad Prism 8 software.

T1 sequence (Q08499 303-809): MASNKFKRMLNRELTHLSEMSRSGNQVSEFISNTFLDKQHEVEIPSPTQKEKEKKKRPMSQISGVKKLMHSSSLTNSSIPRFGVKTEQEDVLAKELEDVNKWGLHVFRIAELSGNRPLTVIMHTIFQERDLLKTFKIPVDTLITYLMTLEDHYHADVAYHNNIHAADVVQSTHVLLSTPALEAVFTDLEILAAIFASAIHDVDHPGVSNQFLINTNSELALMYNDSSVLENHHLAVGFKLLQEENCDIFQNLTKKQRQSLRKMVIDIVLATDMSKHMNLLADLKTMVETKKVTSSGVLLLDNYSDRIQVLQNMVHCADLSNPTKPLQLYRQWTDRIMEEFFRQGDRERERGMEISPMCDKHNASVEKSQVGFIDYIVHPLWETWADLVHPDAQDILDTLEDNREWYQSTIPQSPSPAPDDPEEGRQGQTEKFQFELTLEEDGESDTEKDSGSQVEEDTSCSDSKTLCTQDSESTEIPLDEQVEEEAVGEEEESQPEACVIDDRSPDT

Row | SMILES | IC50
1 | [O-][S@+]1CCc2nc(N3CCC(c4ccc(Cl)cc4)=C(F)C3)nc(NC3(CO)CCC3)c21 [Compound 43] | 10 to 50 nM
2 | [O-][S@+]1CCc2nc(N3CC=C(c4cccc(SC(F)(F)F)c4)CC3)nc(NC3(CO)CCC3)c21 [Compound 52] | 10 to 50 nM
3 | [O-][S@+]1CCc2nc(N3Cc4cc5c(cc4C3)CCC5)nc(NC3(CO)CCC3)c21 [Compound 69] | 10 to 50 nM
4 | CC#Cc1cnc(C2=CCN(c3nc4c(c(NC5(CO)CCC5)n3)[S@+]([O-])CC4)CC2)nc1 [Compound 76] | < 10 nM
5 | [O-][S@+]1CCc2nc(N3CC=C(c4ccc5c(c4)COB5O)CC3)nc(NC3(CO)CCC3)c21 [Compound 66] | < 10 nM
6 | C#Cc1ccc(C2=CCN(c3nc4c(c(NC5(CO)CCC5)n3)[S@+]([O-])CC4)CC2)nc1 [Compound 70] | < 10 nM
7 | [O-][S@+]1CCc2nc(N3CC=C(c4ccc(Cl)c5c4CC5)CC3)nc(NC3(CO)CCC3)c21 [Compound 83] | < 10 nM
8 | CC#Cc1ccc(C2=CCN(c3nc4c(c(NC5(CO)CCC5)n3)[S@+]([O-])CC4)CC2)nc1 [Compound 82] | < 10 nM
9 | [O-][S@+]1CCc2nc(N3CC=C(c4nc5ccccc5s4)CC3)nc(NC3(CO)CCC3)c21 [Compound 56] | < 10 nM
10 | N#Cc1cnc(C2=CCN(c3nc4c(c(NC5(CO)CCC5)n3)[S@+]([O-])CC4)CC2)nc1 [Compound 50] | 10 to 50 nM
11 | [O-][S@+]1CCc2nc(N3CCC(c4ccc5c(c4)CC5)CC3)nc(NC3(CO)CCC3)c21 [Compound 8] | 10 to 50 nM
12 | [O-][S@+]1CCc2nc(N3CC=C(c4ccc(Cl)cc4)CC3)nc(NC3(CO)CCC3)c21 [Compound 1] | < 10 nM
13 | [O-][S@+]1CCc2nc(N3CC=C(c4ccc(Cl)cc4)CCC3)nc(NC3(CO)CCC3)c21 [Compound 4] | 10 to 50 nM
14 | [O-][S@+]1CCc2nc(N3CC=C(c4ncc5c(n4)COB5O)CC3)nc(NC3(CO)CCC3)c21 [Compound 79] | 10 to 50 nM
15 | CP(C)(=O)c1cccc(C2=CCN(c3nc4c(c(NC5(CO)CCC5)n3)[S@+]([O-])CC4)CC2)c1 [Compound 63] | < 10 nM
16 | [O-][S@+]1CCc2nc(N3CC=C(c4cccc(S(F)(F)(F)(F)F)c4)CC3)nc(NC3(CO)CCC3)c21 [Compound 51] | 10 to 50 nM

target: T2, PDE4B2 (Homo sapiens, UniProt Q07343); test: Effect of compounds on PDE4B2 activity (fluorescence polarization kit); type: biochemical; settings: class symbols; read-out: PDE4B2 IC50
T2 construct: purchased BPS Bioscience 60343
Method: The effect of compounds on PDE4B2 activity was detected by a fluorescence polarization kit (BPS Bioscience, Catalog #60343). According to the instructions of the kit, FAM-Cyclic-3′,5′-AMP at a final concentration of […], 1 ng/well of PDE4B2 (PDE buffer was added to the negative control well), and a compound diluted in a gradient manner (PDE buffer containing 10% DMSO was added to the positive control well) were added to each well, fully mixed, and then reacted at room temperature for 1 h. The Binding Agent was diluted with the Binding Agent Diluent (cAMP) at a ratio of 1:100 for later use, the Binding Agent dilution was taken and added to the test plate at 50 μl/well and incubated at room temperature with slow shaking for 20 minutes. After the incubation was complete, Envision was used for FP detection, with Excitation at 480 nm and Emission at 535 nm. FP was usually represented by mP value.
[formula] • I∥ (S535): fluorescence intensity in parallel direction • I⊥ (P535): fluorescence intensity in perpendicular direction • G: G factor=1
as §1, §2

T2 sequence (Q07343 1-564 isoform Q07343-2): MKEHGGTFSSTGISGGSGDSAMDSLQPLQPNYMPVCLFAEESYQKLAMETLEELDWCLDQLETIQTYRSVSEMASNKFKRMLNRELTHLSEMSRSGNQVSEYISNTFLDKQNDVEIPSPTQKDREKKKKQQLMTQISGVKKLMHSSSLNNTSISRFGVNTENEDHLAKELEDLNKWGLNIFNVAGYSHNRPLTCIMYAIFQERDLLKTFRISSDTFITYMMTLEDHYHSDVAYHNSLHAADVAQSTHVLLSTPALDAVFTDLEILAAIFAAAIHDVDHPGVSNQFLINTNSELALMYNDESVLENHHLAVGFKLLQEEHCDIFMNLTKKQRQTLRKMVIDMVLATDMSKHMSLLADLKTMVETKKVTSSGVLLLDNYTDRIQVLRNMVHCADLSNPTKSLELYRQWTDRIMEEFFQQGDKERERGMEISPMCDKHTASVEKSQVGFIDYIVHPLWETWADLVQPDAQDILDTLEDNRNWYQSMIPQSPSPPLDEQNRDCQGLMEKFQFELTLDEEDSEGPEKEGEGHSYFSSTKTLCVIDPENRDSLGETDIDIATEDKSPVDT

Row | SMILES | IC50
17 | [O-][S@+]1CCc2nc(N3CCC(c4ccc(Cl)cc4)=C(F)C3)nc(NC3(CO)CCC3)c21 [Compound 43] | < 10 nM
18 | [O-][S@+]1CCc2nc(N3Cc4cc5c(cc4C3)CCC5)nc(NC3(CO)CCC3)c21 [Compound 69] | < 10 nM
19 | CC#Cc1cnc(C2=CCN(c3nc4c(c(NC5(CO)CCC5)n3)[S@+]([O-])CC4)CC2)nc1 [Compound 76] | < 10 nM
20 | [O-][S@+]1CCc2nc(N3CC=C(c4ccc5c(c4)COB5O)CC3)nc(NC3(CO)CCC3)c21 [Compound 66] | < 10 nM
21 | C#Cc1ccc(C2=CCN(c3nc4c(c(NC5(CO)CCC5)n3)[S@+]([O-])CC4)CC2)nc1 [Compound 70] | < 10 nM
22 | [O-][S@+]1CCc2nc(N3CC=C(c4ccc(Cl)c5c4CC5)CC3)nc(NC3(CO)CCC3)c21 [Compound 83] | < 10 nM
23 | CC#Cc1ccc(C2=CCN(c3nc4c(c(NC5(CO)CCC5)n3)[S@+]([O-])CC4)CC2)nc1 [Compound 82] | < 10 nM
24 | [O-][S@+]1CCc2nc(N3CC=C(c4nc5ccccc5s4)CC3)nc(NC3(CO)CCC3)c21 [Compound 56] | < 10 nM
25 | N#Cc1cnc(C2=CCN(c3nc4c(c(NC5(CO)CCC5)n3)[S@+]([O-])CC4)CC2)nc1 [Compound 50] | 10 to 50 nM
26 | [O-][S@+]1CCc2nc(N3CCC(c4ccc5c(c4)CC5)CC3)nc(NC3(CO)CCC3)c21 [Compound 8] | 10 to 50 nM
27 | [O-][S@+]1CCc2nc(N3CC=C(c4ccc(Cl)cc4)CC3)nc(NC3(CO)CCC3)c21 [Compound 1] | < 10 nM
28 | [O-][S@+]1CCc2nc(N3CC=C(c4ccc(Cl)cc4)CCC3)nc(NC3(CO)CCC3)c21 [Compound 4] | 10 to 50 nM
29 | [O-][S@+]1CCc2nc(N3CC=C(c4ncc5c(n4)COB5O)CC3)nc(NC3(CO)CCC3)c21 [Compound 79] | < 10 nM
30 | CP(C)(=O)c1cccc(C2=CCN(c3nc4c(c(NC5(CO)CCC5)n3)[S@+]([O-])CC4)CC2)c1 [Compound 63] | < 10 nM
31 | [O-][S@+]1CCc2nc(N3CC=C(c4cccc(S(F)(F)(F)(F)F)c4)CC3)nc(NC3(CO)CCC3)c21 [Compound 51] | < 10 nM

same assay, conditions: values in text; read-out: IC50 against PDE4B2

Row | SMILES | IC50
32 | [O-][S@+]1CCc2nc(N3CC=C(c4ccc(Cl)cc4)CC3)nc(NC3(CO)CCC3)c21 [Compound 1] | 2.45 nM

tested on: not listed separately; test: Pharmacokinetic test in mice; type: in vivo, ICR mice; settings: i.g. (10 mg/kg)
Method: 5.1 Experimental animals: Male ICR mice, 20-25 g, 6 mice/compound. Purchased from Chengdu Ddossy Experimental Animals Co., Ltd.
5.2 Experimental design: On the day of the experiment, 42 ICR mice were randomly grouped according to their body weights. The animals were fasted with water available for 12-14 h one day before administration and fed 4 h after administration.
Before and after administration, 0.06 mL of blood was taken from the orbit under isoflurane anesthesia and placed in an EDTAK2 centrifuge tube for centrifugation at 5000 rpm at 4-C for 10 min, followed by plasma collection. The blood collection time points for the intravenous group and intragastric group were both 0 m, 5 mi, 15 mi, 30 mi, 1 h, 2 h, 4 h, 6 h, 8 h, and 24 h. Before analysis and detection, all the samples were stored at −80° C., and the samples were subjected to quantitative analysis using LC-MS/MS.

Row | SMILES | F
33 | [O-][S@+]1CCc2nc(N3CC=C(c4ccc(Cl)cc4)CC3)nc(NC3(CO)CCC3)c21 [Compound 1] | 76.2 ± 4.7%

same assay, conditions: male, ICR, mouse, iv, plasma, i.v. (5 mg/kg)

Row | SMILES | AUC(0-t) | clearance | half-life
34 | [O-][S@+]1CCc2nc(N3CC=C(c4ccc(Cl)cc4)CC3)nc(NC3(CO)CCC3)c21 [Compound 1] | 8660 ± 759 ng·h/mL | 4.55 ± 0.46 mL/min/kg | 6.17 ± 0.71 h

same assay, conditions: male, ICR, mouse, iv, plasma, i.v. (5 mg/kg), read-out: Vdss

Row | SMILES | Vd
35 | [O-][S@+]1CCc2nc(N3CC=C(c4ccc(Cl)cc4)CC3)nc(NC3(CO)CCC3)c21 [Compound 1] | 2.07 ± 0.2 L/kg

same assay, conditions: male, ICR, mouse, po, plasma, i.g. (10 mg/kg)

Row | SMILES | AUC(0-t) | half-life
36 | [O-][S@+]1CCc2nc(N3CC=C(c4ccc(Cl)cc4)CC3)nc(NC3(CO)CCC3)c21 [Compound 1] | 26400 ± 1640 ng·h/mL | 15.7 ± 4.1 h

tested on: not listed separately; test: Inhibition of LPS-induced TNF-α release from human peripheral blood mononuclear cells in vitro; type: cell-based; settings: PBMC, hPBMC, 100 ng/mL LPS, 4 h, class symbols, read-out: Re IC50 (nM) (relative IC50), TNF-α induced by LPS
Method: Normal human peripheral blood which was anticoagulated (citric acid anticoagulation) was collected, and hPBMCs were prepared by Ficoll-Paque PLUS (Cytiva, Cat #17144002, density 1.077 g/mL). The concentration of hPBMC cells was adjusted to 0.25×10^6 cells/mL with RPMI1640 medium and inoculated into a 96-well plate in an amount of 50000 cells per well. Subsequently, different concentrations of drugs were added for pre-incubation for 1 h (the DMSO final concentration was 0.1%, and the positive and negative control wells had the same volume of RPMI1640 containing 0.1% DMSO). After the pre-incubation was complete, 100 ng/mL LPS (SIGMA, L2630) was added to the compound and positive control wells, and the negative control well had the same volume of RPMI1640 containing 0.1% DMSO. Incubation was carried out for 4 h in an incubator at 37° C. and 5% CO2. The cell supernatant was collected, and the content of TNF-α in the supernatant sample was detected by human TNF-α Elisa quantitative test kit (Sino Biological, Cat #KIT10602). The IC50 value was calculated using GraphPad Prism software.

Row | SMILES | IC50
37 | [O-][S@+]1CCc2nc(N3Cc4cc5c(cc4C3)CCC5)nc(NC3(CO)CCC3)c21 [Compound 69] | 50 to 100 nM
38 | CC#Cc1cnc(C2=CCN(c3nc4c(c(NC5(CO)CCC5)n3)[S@+]([O-])CC4)CC2)nc1 [Compound 76] | < 10 nM
39 | [O-][S@+]1CCc2nc(N3CC=C(c4ccc5c(c4)COB5O)CC3)nc(NC3(CO)CCC3)c21 [Compound 66] | 10 to 50 nM
40 | C#Cc1ccc(C2=CCN(c3nc4c(c(NC5(CO)CCC5)n3)[S@+]([O-])CC4)CC2)nc1 [Compound 70] | < 10 nM
41 | [O-][S@+]1CCc2nc(N3CC=C(c4ccc(Cl)c5c4CC5)CC3)nc(NC3(CO)CCC3)c21 [Compound 83] | < 10 nM
42 | [O-][S@+]1CCc2nc(N3CC=C(c4ncc5c(n4)COB5O)CC3)nc(NC3(CO)CCC3)c21 [Compound 79] | < 10 nM

same assay, conditions: PBMC, hPBMC, 100 ng/mL LPS, 4 h, read-out: Max inhibition (%)

Row | SMILES | Emax
43 | [O-][S@+]1CCc2nc(N3Cc4cc5c(cc4C3)CCC5)nc(NC3(CO)CCC3)c21 [Compound 69] | 74.4%
44 | CC#Cc1cnc(C2=CCN(c3nc4c(c(NC5(CO)CCC5)n3)[S@+]([O-])CC4)CC2)nc1 [Compound 76] | 73.8%
45 | [O-][S@+]1CCc2nc(N3CC=C(c4ccc5c(c4)COB5O)CC3)nc(NC3(CO)CCC3)c21 [Compound 66] | 79.3%
46 | C#Cc1ccc(C2=CCN(c3nc4c(c(NC5(CO)CCC5)n3)[S@+]([O-])CC4)CC2)nc1 [Compound 70] | 70.5%
47 | [O-][S@+]1CCc2nc(N3CC=C(c4ccc(Cl)c5c4CC5)CC3)nc(NC3(CO)CCC3)c21 [Compound 83] | 77.7%
48 | [O-][S@+]1CCc2nc(N3CC=C(c4ncc5c(n4)COB5O)CC3)nc(NC3(CO)CCC3)c21 [Compound 79] | 61.5%

Reference: US20250326765A1, “PDE4B INHIBITOR AND USE THEREOF” (XIZANG HAISCO PHARMACEUTICAL CO., LTD., priority 2022, published 2025)
